Organism: Rattus norvegicus
Assay: DrugMatrix - Regimen: Daily Repeat
Assay type: toxicity, organism-based, Sprague-Dawley
Parameters: regimen Daily Repeat, gender Male, age 6-8 weeks
Settings: in vivo, po, route oral GAVAGE, […]; for ABSOLUTE BASOPHIL / ABSOLUTE EOSINOPHIL / ABSOLUTE LYMPHOCYTE / ABSOLUTE MONOCYTE / ABSOLUTE SEGMENTED NEUTROPHIL / BASOPHIL / EOSINOPHIL / ERYTHROCYTE COUNT / HEMATOCRIT / HEMOGLOBIN / LEUKOCYTE COUNT / LYMPHOCYTE / MEAN CORPUSCULAR HEMOGLOBIN / MEAN CORPUSCULAR HEMOGLOBIN CONCENTRATION / MEAN CORPUSCULAR VOLUME / MONOCYTE / NEUTROPHIL / NUCLEATED RED BLOOD CELLS / PLATELET COUNT: tissue Blood; for ALANINE AMINOTRANSFERASE / ALBUMIN / ALKALINE PHOSPHATASE / ASPARTATE AMINOTRANSFERASE / BLOOD UREA NITROGEN / CARBON DIOXIDE / CHLORIDE / CHOLESTEROL / CREATINE PHOSPHOKINASE / CREATININE / GLUCOSE / LACTATE DEHYDROGENASE / LIPASE / PHOSPHORUS / POTASSIUM / SODIUM / TOTAL BILIRUBIN / TOTAL PROTEIN / URIC ACID: tissue Plasma
[1] = 1 mg/kg, 120 h, dose level Low, time 5 day
[2] = 14 mg/kg, 72 h, dose level High, time 3 day
[3] = 14 mg/kg, 120 h, dose level High, time 5 day

CCOC(=O)C1=C(C)NC(C)=C(C(=O)OCC)C1c1ccccc1/C=C/C(=O)OC(C)(C)C [LACIDIPINE]
ABSOLUTE BASOPHIL [1]: 0 CELLS/uL
ABSOLUTE EOSINOPHIL [1]: 0 CELLS/uL
ABSOLUTE LYMPHOCYTE [1]: 13674 CELLS/uL
ABSOLUTE MONOCYTE [1]: 253 CELLS/uL
ABSOLUTE SEGMENTED NEUTROPHIL [1]: 1206.33 CELLS/uL
BASOPHIL [1]: 0%
EOSINOPHIL [1]: 0%
ERYTHROCYTE COUNT [1]: 6.05 x10E6/uL
HEMATOCRIT [1]: 38.43%
HEMOGLOBIN [1]: 15 G/DL
LEUKOCYTE COUNT [1]: 15.13 x10E3/uL
LYMPHOCYTE [1]: 90.33%
MEAN CORPUSCULAR HEMOGLOBIN [1]: 24.8 pg
MEAN CORPUSCULAR HEMOGLOBIN CONCENTRATION [1]: 39.07 G/DL
MEAN CORPUSCULAR VOLUME [1]: 63.47 fL
MONOCYTE [1]: 1.67%
NEUTROPHIL [1]: 8%
NUCLEATED RED BLOOD CELLS [1]: 0.33 /100WBC
PLATELET COUNT [1]: 1182 x10E3/uL
ALANINE AMINOTRANSFERASE [1]: 60.33 u/L
ALBUMIN [1]: 4.13 G/DL
ALKALINE PHOSPHATASE [1]: 378.33 u/L
ASPARTATE AMINOTRANSFERASE [1]: 70.67 u/L
BLOOD UREA NITROGEN [1]: 12.67 mg/dL
CARBON DIOXIDE [1]: 30 mmol/L
CHLORIDE [1]: 99.67 MEQ/L
CHOLESTEROL [1]: 69 mg/dL
CREATINE PHOSPHOKINASE [1]: 271.67 u/L
CREATININE [1]: 0.17 mg/dL
GLUCOSE [1]: 166.33 mg/dL
LACTATE DEHYDROGENASE [1]: 125.67 u/L
LIPASE [1]: 10 u/L
PHOSPHORUS [1]: 10.93 mg/dL
POTASSIUM [1]: 6.75 MEQ/L
SODIUM [1]: 141.97 MEQ/L
TOTAL BILIRUBIN [1]: 0.17 mg/dL
TOTAL PROTEIN [1]: 5.83 G/DL
URIC ACID [1]: 1.9 mg/dL
ABSOLUTE BASOPHIL [2]: 0 CELLS/uL
ABSOLUTE EOSINOPHIL [2]: 0 CELLS/uL
ABSOLUTE LYMPHOCYTE [2]: 6598.33 CELLS/uL
ABSOLUTE MONOCYTE [2]: 95.33 CELLS/uL
ABSOLUTE SEGMENTED NEUTROPHIL [2]: 673 CELLS/uL
BASOPHIL [2]: 0%
EOSINOPHIL [2]: 0%
ERYTHROCYTE COUNT [2]: 6.39 x10E6/uL
HEMATOCRIT [2]: 38.67%
HEMOGLOBIN [2]: 15.2 G/DL
LEUKOCYTE COUNT [2]: 7.37 x10E3/uL
LYMPHOCYTE [2]: 89.67%
MEAN CORPUSCULAR HEMOGLOBIN [2]: 23.8 pg
MEAN CORPUSCULAR HEMOGLOBIN CONCENTRATION [2]: 39.33 G/DL
MEAN CORPUSCULAR VOLUME [2]: 60.53 fL
MONOCYTE [2]: 1.33%
NEUTROPHIL [2]: 9%
NUCLEATED RED BLOOD CELLS [2]: 0.33 /100WBC
PLATELET COUNT [2]: 1020.33 x10E3/uL
ALANINE AMINOTRANSFERASE [2]: 81.67 u/L
ALBUMIN [2]: 4 G/DL
ALKALINE PHOSPHATASE [2]: 315.33 u/L
ASPARTATE AMINOTRANSFERASE [2]: 94 u/L
BLOOD UREA NITROGEN [2]: 9.33 mg/dL
CARBON DIOXIDE [2]: 25 mmol/L
CHLORIDE [2]: 94.33 MEQ/L
CHOLESTEROL [2]: 62.33 mg/dL
CREATINE PHOSPHOKINASE [2]: 287 u/L
CREATININE [2]: 0.4 mg/dL
GLUCOSE [2]: 140 mg/dL
LACTATE DEHYDROGENASE [2]: 223.33 u/L
LIPASE [2]: 9.67 u/L
PHOSPHORUS [2]: 8.63 mg/dL
POTASSIUM [2]: 4.28 MEQ/L
SODIUM [2]: 137.47 MEQ/L
TOTAL BILIRUBIN [2]: 0.2 mg/dL
TOTAL PROTEIN [2]: 5.47 G/DL
URIC ACID [2]: 0.53 mg/dL
ABSOLUTE BASOPHIL [3]: 0 CELLS/uL
ABSOLUTE EOSINOPHIL [3]: 59.67 CELLS/uL
ABSOLUTE LYMPHOCYTE [3]: 14336 CELLS/uL
ABSOLUTE MONOCYTE [3]: 190.33 CELLS/uL
ABSOLUTE SEGMENTED NEUTROPHIL [3]: 2280.67 CELLS/uL
BASOPHIL [3]: 0%
EOSINOPHIL [3]: 0.33%
ERYTHROCYTE COUNT [3]: 6.95 x10E6/uL
HEMATOCRIT [3]: 41.6%
HEMOGLOBIN [3]: 16.07 G/DL
LEUKOCYTE COUNT [3]: 16.87 x10E3/uL
LYMPHOCYTE [3]: 85.33%
MEAN CORPUSCULAR HEMOGLOBIN [3]: 23.17 pg
MEAN CORPUSCULAR HEMOGLOBIN CONCENTRATION [3]: 38.67 G/DL
MEAN CORPUSCULAR VOLUME [3]: 59.9 fL
MONOCYTE [3]: 1%
NEUTROPHIL [3]: 13.33%
NUCLEATED RED BLOOD CELLS [3]: 0 /100WBC
PLATELET COUNT [3]: 1126 x10E3/uL
ALANINE AMINOTRANSFERASE [3]: 90.33 u/L
ALBUMIN [3]: 4.47 G/DL
ALKALINE PHOSPHATASE [3]: 262.33 u/L
ASPARTATE AMINOTRANSFERASE [3]: 95.67 u/L
BLOOD UREA NITROGEN [3]: 10.33 mg/dL
CARBON DIOXIDE [3]: 25.33 mmol/L
CHLORIDE [3]: 97.67 MEQ/L
CHOLESTEROL [3]: 58.67 mg/dL
CREATINE PHOSPHOKINASE [3]: 234.67 u/L
CREATININE [3]: 0.14 mg/dL
GLUCOSE [3]: 154.67 mg/dL
LACTATE DEHYDROGENASE [3]: 217 u/L
LIPASE [3]: 9.33 u/L
PHOSPHORUS [3]: 11.23 mg/dL
POTASSIUM [3]: 4.62 MEQ/L
SODIUM [3]: 138.03 MEQ/L
TOTAL BILIRUBIN [3]: 0.33 mg/dL
TOTAL PROTEIN [3]: 5.93 G/DL
URIC ACID [3]: 1.6 mg/dL
